The values that follow come from article PMC9718554, “Discovery of a fragment hit compound targeting D-Ala:D-Ala ligase of bacterial peptidoglycan biosynthesis” (Journal of Enzyme Inhibition and Medicinal Chemistry, 2022).

Where two headings read alike, the source gives them in different places.

The assay has as its target T1, E. coli DdlB enzyme (D-alanine:D-alanine ligase) (Escherichia coli, UniProt P07862).
T1 construct: made in house; host or cells: E. coli
Put plainly: biochemical. As to conditions: for remaining activity at 1800 µM: tested concentration 1.8 mM; for remaining activity at 2100 µM: tested concentration 2.1 mM; for remaining activity at 2200 µM: tested concentration 2.2 mM; for remaining activity at 2500 µM: tested concentration 2.5 mM; for remaining activity at 1700 µM: tested concentration 1.7 mM; for remaining activity at 1900 µM: tested concentration 1.9 mM; for remaining activity at 2000 µM: tested concentration 2.0 mM; for remaining activity at 3300 µM: tested concentration 3.3 mM; for remaining activity at 2300 µM: tested concentration 2.3 mM; for remaining activity at 2600 µM: tested concentration 2.6 mM; for remaining activity at 2400 µM: tested concentration 2.4 mM; for remaining activity at 2800 µM: tested concentration 2.8 mM; for remaining activity at 3100 µM: tested concentration 3.1 mM.

The mark [1] stands for this setting: residual activity, read-out: DdlB RA.
[2] abbreviates: residual activity of DdlB, fragment library screening, read-out: DdlB RA.

Consider `CC1(C(=O)O)CCCCC(=O)N1` (stereo not drawn) [Compound S515-0278], for which the remaining activity at 2900 µM (tested concentration 2.9 mM, read-out: DdlB RA) was found to be 93%.

`Cc1cc2nc(COC(=O)c3ccco3)cc(=O)n2o1` [Compound G265-0750]: the remaining activity at 1800 µM (read-out: DdlB RA) was 92%. For `CCC(=O)N1CCC(c2nc(C3CCOCC3)no2)C1` (stereo not drawn) [Compound S428-0464], the remaining activity at 2100 µM under setting [1] was found to be 95%.

Consider `O=C1CC(c2ccccc2)c2snc(C(=O)O)c2N1` (stereo not drawn) [Compound 8020-2209], for which the remaining activity at 1800 µM under setting [1] was 94%. In the case of `c1cnc2[nH]cc(CCN3CCNCC3)c2c1` [FF01-3277], the remaining activity at 2200 µM under setting [1] was found to be 62%.

As for `Cc1c(S(=O)(=O)NC2CCCCCC2)cnn1C` [Compound Y502-6613], under setting [1], the remaining activity at 1800 µM stood at 94%. As for `Clc1ccc(Cl)nn1` [FLD095], under setting [2], the remaining activity at 2500 µM came to 98%. On to `O=C1C=C(O)CO1` [Compound 8020-5738], for which the remaining activity at 5000 µM (tested concentration 5.0 mM, read-out: DdlB RA) came out at 98%. With `O=C(c1ccccc1)N1CCC(c2nnc(C3CC3)[nH]2)CC1` [Compound T630-2594], the remaining activity at 1700 µM (read-out: DdlB RA) was 91%. Consider `CCCOc1ccc(C(=O)NCC(=O)O)cc1` [Compound 8007-0359], for which the remaining activity at 2100 µM (read-out: DdlB RA) came to 86%. Turning to `CN(C)c1ccc(C(=O)O)cc1` [FLD070], the remaining activity at 2500 µM under setting [2] came to 93%. Consider `CCn1cc(C(=O)Nc2ccccc2C(=O)O)cn1` [Compound Y501-0105], for which the remaining activity at 1900 µM under setting [1] turned out to be 88%. `CCCNC(=O)N1CCC2(CCC(=O)N(C)CC2)CC1` [Compound S509-1557]: under setting [1], the remaining activity at 2000 µM came out at 98%. Regarding `Cc1ccc(CC2CC(=O)N(c3ccncc3)C2=O)cc1` (stereo not drawn) [Compound 6903-0015], the remaining activity at 2000 µM under setting [1] was determined as 84%. Take `CCc1ccc(B(O)O)cc1` [Compound 0054-0178]: the remaining activity at 3300 µM (read-out: DdlB RA) is 104%. For `CCCn1c(C)cnc1C1CCNC1` (stereo not drawn) [Compound T158-0004], the remaining activity at 2300 µM (read-out: DdlB RA) was 86%. Turning to `O=C(O)c1n[nH]cc1Br` [Compound 8017-3539], the remaining activity at 2600 µM (read-out: DdlB RA) turned out to be 87%. Take `CC(O)C1CCN(Cc2ccc(Br)o2)CC1` (stereo not drawn) [Compound T786-0030]: the remaining activity at 2100 µM under setting [1] turned out to be 94%.

With `NC(=O)c1ccccc1N` [FLD043], the remaining activity at 2500 µM under setting [2] is 98%.

As for `O=C(O)CC1C(=O)NCCN1C1Cc2ccccc2C1` (stereo not drawn) [Compound D236-0050], under setting [1], the remaining activity at 2000 µM is 103%. In the case of `O=C(NCc1cc[nH]n1)[C@H]1CC=CC[C@H]1C(=O)O` [Compound Y504-7917], the remaining activity at 2000 µM (fragment library screening, read-out: DdlB RA) was 88%. Consider `Cc1cccc(OCC(=O)NC(C)C(=O)O)c1` (stereo not drawn) [Compound 1683-0903], for which the remaining activity at 2100 µM (read-out: DdlB RA) stood at 98%. Consider `CC1CCCCC1NS(=O)(=O)c1ccccc1` (stereo not drawn) [Compound Y206-4071], for which, under “read-out: DdlB RA”, the remaining activity at 2200 µM turned out to be 91%. With `Cc1ccc(S(=O)(=O)N2CCc3[nH]cnc3C2)cc1` [Compound M512-0400], the remaining activity at 2000 µM under setting [1] amounted to 94%. On to `CCS(=O)(=O)N1CCCc2cc(NC(C)=O)ccc21` [Compound G504-0524], for which the remaining activity at 1800 µM under setting [1] turned out to be 95%. Consider `CCS(=O)(=O)N1CCC(C(=O)N2CCCCC2)CC1` [Compound Y050-2528], for which the remaining activity at 2100 µM under setting [1] amounted to 97%. As for `Cc1ccccc1NS(=O)(=O)c1c[nH]c2ncccc12` [Compound P633-0038], under setting [1], the remaining activity at 1700 µM was 89%. Take `COc1cccc(CNC(=O)C2CCCCC(=O)N2C)c1` (stereo not drawn) [Compound S513-0092]: the remaining activity at 1900 µM under setting [1] came to 97%. For `O=C(O)C1CCCCC1C(=O)NCc1ccc(F)cc1` (stereo not drawn) [Compound Y204-1009], the remaining activity at 1800 µM (read-out: DdlB RA) came out at 95%.

For the compound `O=C(O)Cc1c(Cl)cccc1Cl` [FLD156], the remaining activity at 2500 µM under setting [2] was found to be 100%. In the case of `N#CCC(=O)N(c1ccccc1)c1ccccc1` [Compound Y204-3664], where the note is “read-out: DdlB RA”, the remaining activity at 2500 µM was 89%. Turning to `COC(=O)c1ccc(S(=O)(=O)O)o1` [Compound 4055-0046], where the note is “read-out: DdlB RA”, the remaining activity at 2400 µM was determined as 102%. For `Cc1nc2nc(S(N)(=O)=O)nn2c(C)c1C` [Compound 8009-4322], the remaining activity at 2100 µM (read-out: DdlB RA) is 97%.

For the compound `Cc1cc(O)n(-c2nnn[nH]2)n1` [Compound 8016-1033], under “tested concentration 3.0 mM, read-out: DdlB RA”, the remaining activity at 3000 µM was 80%. As for `NS(=O)(=O)c1ccc2c(c1)CCN2` [Compound 8018-8673], the remaining activity at 2500 µM (read-out: DdlB RA) came to 80%.

With `O=C(O)Cn1nnc(O)n1` [Compound 8013-5932], for the setting “tested concentration 3.5 mM, read-out: DdlB RA”, the remaining activity at 3500 µM came out at 86%. Take `COc1cc(C#N)ccc1C` [FLD012]: the remaining activity at 2500 µM under setting [2] stood at 51%. Turning to `Cc1ccc(-c2noc(O)n2)cc1` [Compound C066-5428], the remaining activity at 2800 µM (read-out: DdlB RA) came out at 95%. Consider `CC1(C)Cc2nc(N)c(C(=O)O)cc2CO1` [Compound 5545-0125], for which the remaining activity at 2300 µM under setting [1] is 95%.

Take `O=S(=O)(O)CCOc1ccccc1` [Compound 0165-0458]: where the note is “read-out: DdlB RA”, the remaining activity at 2500 µM was found to be 100%.

Consider `O=C1Cn2nnc(CNC(=O)NC3CCCC3)c2CN1` [SC45-0107], for which, under setting [1], the remaining activity at 2200 µM stood at 93%.

In the case of `CC1=CC(C)(C)Nc2c(C(=O)O)cccc21` [Compound Y021-0768], the remaining activity at 2300 µM under setting [1] stood at 105%. For `O=C1CCC2(CCN(S(=O)(=O)c3ccccc3)C2)N1` (stereo not drawn) [Compound S914-0001], the remaining activity at 2100 µM under setting [1] amounted to 101%.

Regarding `Cc1ccc(NS(=O)(=O)c2cnc(O)[nH]c2=O)c(C)c1` [Compound D668-0040], under “read-out: DdlB RA”, the remaining activity at 1700 µM was 91%.

Regarding `O=C(O)Cc1cccnc1` [FLD083], the remaining activity at 2500 µM under setting [2] was found to be 98%. Still for that read-out and setting: for `CC1=NC(C)(C)CO1` [FLD188] the value was 91%. For the compound `Oc1cc(-c2ccccc2)n[nH]1` [Compound Y501-8801], the remaining activity at 3100 µM (read-out: DdlB RA) turned out to be 102%. With `O=C(O)c1cc2nccc(-c3ccccc3)n2n1` [Compound D717-0041], the remaining activity at 2100 µM under setting [1] worked out at 74%.

With `Cn1cnc2c(c1=O)CCC(N)CC2` (stereo not drawn) [FF20-0287], the remaining activity at 3100 µM (read-out: DdlB RA) was found to be 91%. As to `CC1(CNC(=O)c2ccccc2Cl)CCOCC1` [Compound P970-0504], the remaining activity at 2200 µM under setting [1] was found to be 94%. For the compound `O=C1COc2cc(O)ccc21` [FLD029], under setting [2], the remaining activity at 2500 µM amounted to 100%. On to `O=C(O)c1cccn2c(=O)c3cc(F)ccc3nc12` [Compound C200-9599], for which the remaining activity at 1900 µM under setting [1] is 85%. With `c1cnc2c(c1)ccc1cccnc12` [FLD040], the remaining activity at 2500 µM under setting [2] turned out to be 74%. On to `O=C1CS(=O)(=O)C2(CCNCC2)N1c1ccccc1` [Compound T140-0972], for which the remaining activity at 1900 µM under setting [1] turned out to be 93%. With `O=C1CSCC(C(=O)O)N1` (stereo not drawn) [FF01-5725], where the note is “read-out: DdlB RA”, the remaining activity at 3100 µM came out at 107%. In the case of `CC(CCc1ccccc1)NC(=O)N1CCOCC1` (stereo not drawn) [Compound Y030-6075], the remaining activity at 2100 µM under setting [1] was 94%. Consider `Cc1ccc(-c2ccnc3c(C(=O)O)cnn23)cc1C` [Compound 11, 7–(3,4-Dimethylphenyl)pyrazolo[1,5-a]pyrimidine-3-carboxylic acid], for which the remaining activity at 500 µM (at 0.5 mM, read-out: DdlB inhibition, RA (Residual Activity)) turned out to be 100%.

For `O=C(c1n[nH]c2ccccc12)N1C[C@H]2CCC[C@@H](O)[C@H]2C1` [Compound S890-0272], the remaining activity at 1800 µM under setting [1] worked out at 95%. As to `CC(C)C(=O)N1CCC2(CCNC(=O)CC2)CC1` [Compound S509-1270], the remaining activity at 2000 µM (read-out: DdlB RA) is 93%. As to `CCCc1cc(C(=O)O)n(C)n1` [Compound 8010-6224], under setting [2], the remaining activity at 3300 µM was found to be 90%. As for `O=c1[nH]c(O)ncc1S(=O)(=O)N1CCCC1` [Compound D668-0107], the remaining activity at 2000 µM under setting [1] was determined as 94%. For `Cc1ccc2cc(CCC(=O)O)c(O)nc2c1` [Compound P207-8939], the remaining activity at 2600 µM (read-out: DdlB RA) is 93%.

For `C=CCN1C(=O)NOC(N)=C1C#N` [Compound 8017-4055], the remaining activity at 2800 µM (read-out: DdlB RA) is 92%.

With `COc1cccc(F)c1B(O)O` [Compound 8020-2294], for the setting “read-out: DdlB RA”, the remaining activity at 2900 µM was found to be 97%.

`O=S(=O)(c1ccccc1)N1CCN2CCCC2C1` (stereo not drawn) [Compound Y206-5298]: the remaining activity at 2300 µM under setting [1] amounted to 92%. Turning to `CCCCCC(C)n1nc(O)cc1N` (stereo not drawn) [Compound D068-0217], the remaining activity at 2500 µM (read-out: DdlB RA) was 103%.

Take `COc1ccc(-c2ccc(C(=O)O)o2)cc1` [FLD030]: under setting [2], the remaining activity at 2500 µM is 100%. With `COC(=O)Cn1nc(C(F)F)c2c1CCCC2` [Compound Y504-8961], the remaining activity at 2000 µM (read-out: DdlB RA) stood at 94%. Take `Oc1nnc(-c2ccccc2)c(-c2ccccc2)n1` [Compound 3039-0046]: under setting [1], the remaining activity at 2000 µM was 104%.

In the case of `O=[N+]([O-])c1cc(CN2CCCC2)c2cccnc2c1O` [Compound 8010-2705], the remaining activity at 1800 µM under setting [1] came out at 57%.

Take `Cc1ccc([C@@H](CC(=O)O)c2ccco2)cc1` [Compound 5664-0388]: where the note is “read-out: DdlB RA”, the remaining activity at 2200 µM was 100%. In the case of `Cc1cc(NC(=O)C2CC(=O)N(C3CCCCC3)C2)no1` (stereo not drawn) [Compound Y031-2007], the remaining activity at 1900 µM under setting [1] amounted to 83%. Take `CCS(=O)(=O)Nc1c(C)cc(C)cc1C` [Compound Y202-7340]: the remaining activity at 2400 µM (read-out: DdlB RA) was 90%. With `Nc1ccc2c(c1)[C@@H](O)C[C@@H](C(F)(F)F)O2` [Compound 8018-8746], the remaining activity at 2600 µM (read-out: DdlB RA) was determined as 98%.

Regarding `Nc1ncccc1O` [FLD125], the remaining activity at 2500 µM under setting [2] was 97%.
